Assay results: PMC9675044 (Journal of medicinal chemistry, 2022)

How the values were obtained:
[1] = test system: 468 kinases; test: KINOMEscan scanMAX kinase selectivity panel; type: binding, human
[2] = test system: HeLa cells; test: Quantitative phosphoproteomic analysis; type: cell-based, human; conditions: 30 min, 100 μM (LIMKi3, TH470) or 1 mM (TH257) as printed; for Significantly regulated phosphosites: p<0.01
[3] = test system: more than 200 full-length kinases in Hela cell lysate; test: Kinobead pulldown assay in cellular lysate; type: binding, human; conditions: dose–response 30 μM to 1 nM

Structure (SMILES) | Additional off-targets identified besides LIMK1/2 ([1]; selectivity profiling) | Downregulated phosphosites [2] [sites] | Upregulated phosphosites [2] [sites] | Significantly regulated phosphosites [2] [sites] | Hits identified in kinobead assay [3] | Interaction with other kinases in KINOMEscan panel ([1]; screened at 1 μM, 468 kinases)
O=C(c1ccc(S(=O)(=O)Nc2ccccc2)cc1)N(Cc1ccccc1)Cc1cn(Cc2ccccc2)nn1 [Compound 33, N-benzyl-N-[(1-benzyl-1H-1,2,3-triazol-4-yl)methyl]-4-(phenylsulfamoyl)benzamide] | four |  |  |  |  | 
CC(C)C(=O)Nc1ncc(-c2cc(C(F)F)nn2-c2c(Cl)cccc2Cl)s1 [Compound 1, reference compound] |  | 173 | 189 | 362 | No other hits except LIMK1 and LIMK2 were identified | 
O=C(NCc1ccccc1)c1ccc(S(=O)(=O)NCc2ccccc2)cc1 [Compound 26, N-benzyl-4-(benzylsulfamoyl)benzamide] |  |  |  |  | No other hits except LIMK1 and LIMK2 were identified | no interacting kinase
CC(C)C(=O)Nc1ncc(C(=O)NCCN(Cc2ccccc2)C(=O)c2ccc(S(=O)(=O)Nc3ccccc3)cc2)s1 [Compound 48, N-benzyl-N-(2-{[2-(2-methylpropanamido)-1,3-thiazol-5-yl]formamido}ethyl)-4-(phenylsulfamoyl)benzamide] |  | 193 | 146 | 339 | No other hits except LIMK1 and LIMK2 were identified | 
